In the NIST ThermoML archive (doi:10.1016/j.jct.2006.03.021):

Experiment: molar heat capacity at constant pressure
Conditions: 101.33 kPa, Crystal, Vacuum adiabatic calorimetry

O.OC[C@H]1O[C@@H](O[C@H]2O[C@H](CO)[C@@H](O)[C@H](O)[C@H]2O)[C@H](O)[C@@H](O)[C@@H]1O [α,β-trehalose monohydrate]
Conditions	molar heat capacity at constant pressure [J/K/mol]
143.36 K	226.95
145.42 K	229.87
147.49 K	232.93
149.55 K	235.92
150 K	236.64
151.6 K	238.94
153.65 K	242.05
155.7 K	244.94
157.76 K	248.08
159.82 K	250.99
160 K	251.27
161.88 K	253.84
163.94 K	256.98
166.01 K	260.01
168.09 K	262.9
170 K	265.74
170.15 K	265.9
172.2 K	268.93
174.23 K	271.83
176.25 K	274.9
178.26 K	277.71
180 K	280.12
180.26 K	280.35
182.24 K	283.42
184.22 K	286.13
186.18 K	288.99
188.13 K	291.83
190 K	294.51
190.07 K	294.5
191.99 K	297.33
193.92 K	300.26
195.86 K	302.94
197.82 K	305.58
199.78 K	308.6
200 K	308.94
201.75 K	311.51
203.73 K	314.35
205.72 K	317.15
207.72 K	320.03
209.73 K	323.23
210 K	323.42
211.76 K	326.07
213.79 K	328.83
215.82 K	331.74
217.85 K	335.14
219.89 K	337.71
220 K	337.95
221.94 K	340.79
223.97 K	343.7
226.01 K	346.53
228.06 K	349.68
230 K	352.54
230.09 K	352.7
232.12 K	355.67
234.16 K	358.66
236.2 K	361.46
238.24 K	364.57
240 K	367.19
240.3 K	367.64
242.38 K	370.71
244.44 K	373.64
246.49 K	376.59
248.54 K	379.8
250 K	381.89
250.58 K	382.78
252.6 K	385.78
254.62 K	388.6
256.63 K	391.62
258.63 K	394.61
260 K	396.69
260.63 K	397.5
262.91 K	400.41
264.59 K	403.48
266.56 K	406.35
268.52 K	409.35
270 K	411.55
270.48 K	412.29
272.46 K	415.5
274.46 K	418.09
276.47 K	421.07
278.49 K	424.17
280 K	426.56
280.52 K	427.38
282.54 K	430.46
284.56 K	433.56
286.58 K	436.49
288.58 K	439.62
290 K	441.71
290.63 K	443
292.65 K	445.73
294.68 K	448.7
296.7 K	451.81
298.15 K	454.11
298.72 K	454.95
300 K	456.92
300.74 K	457.97
